Source: US7138361B2, “Herbicidal heterocycles” (E. I. du Pont de Nemours and Company, priority 2000, dated 2006)

Legend:
Experiment in all cases: Test C postemergence
Type in all cases: in vivo
[1] = system: morningglory (Ipomoea hederacea)
In short: (§1)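 Each compound was dissolved in a non-phytotoxic solvent system containing a surfactant and sprayed either on freshly planted seeds (preemergence) or on young plants, 2 to 18 cm high (postemergence). Ratings after 12 to 14 greenhouse days ran from 0, no effect, to 100, complete control.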

soybean (Glycine max) = system: soybean (Glycine max)
In short: as §1

[2] = system: goosegrass (Eleusine indica)
In short: as §1

[3] = system: Surinam grass (Brachiaria decumbens)
In short: as §1

[4] = system: pigweed (Amaranthus retroflexus)
In short: as §1

[5] = system: giant foxtail (Setaria faberii)
In short: as §1

[6] = system: chickweed (Stellaria media)
In short: as §1

[7] = system: common ragweed (Ambrosia elatior)
In short: as §1

[8] = system: yellow nutsedge (Cyperus esculentus)
In short: as §1

[9] = system: bermudagrass (Cynodon dactylon)
In short: as §1

[10] = system: velvetleaf (Abutilon theophrasti)
In short: as §1

[11] = system: lambsquarters (Chenopodium album)
In short: as §1

[12] = system: johnsongrass (Sorghum halepense)
In short: as §1

kochia (Kochia scoparia) = system: kochia (Kochia scoparia)
In short: as §1

[13] = system: woolly cupgrass (Eriochloa villosa)
In short: as §1

[14] = Rate 125 g/ha, scale 0 to 100, 0 no effect, 100 complete control
[15] = Rate 250 g/ha, scale 0 to 100 (0 no effect, 100 complete control)
[16] = Rate 500 g/ha, scale 0 to 100 (0 no effect, 100 complete control)
[17] = Rate 62 g/ha, scale 0 to 100, 0 no effect, 100 complete control

SMILES: CCC(C)c1ccn(C2SCN(c3cccc(OC(F)(F)F)c3)C2=O)n1 (centres unmarked) [Compound 40]
- Plant response rating, Morningglory ([1]; Rate 62 g/ha, scale 0 to 100): 0
- Plant response rating, Morningglory [1, 14]: 0
- Plant response rating, Morningglory [1, 15]: 0
- Plant response rating, Morningglory [1, 16]: 0
- Plant response rating, Soybean (soybean (Glycine max); Rate 62 g/ha, scale 0 to 100): 0
- Plant response rating, Soybean (soybean (Glycine max); [14]): 0
- Plant response rating, Soybean (soybean (Glycine max); [15]): 0
- Plant response rating, Soybean (soybean (Glycine max); [16]): 0
- Plant response rating, Goosegrass ([2]; Rate 62 g/ha, scale 0 to 100): 0
- Plant response rating, Goosegrass [2, 14]: 0
- Plant response rating, Goosegrass [2, 15]: 0
- Plant response rating, Goosegrass [2, 16]: 20
- Plant response rating, Surinam grass ([3]; Rate 62 g/ha, scale 0 to 100): 0
- Plant response rating, Surinam grass [3, 14]: 0
- Plant response rating, Surinam grass [3, 15]: 0
- Plant response rating, Surinam grass [3, 16]: 0
- Plant response rating, Pigweed ([4]; Rate 62 g/ha, scale 0 to 100): 0
- Plant response rating, Pigweed [4, 14]: 0
- Plant response rating, Pigweed [4, 15]: 50
- Plant response rating, Pigweed [4, 16]: 50
- Plant response rating, Foxtail, Giant ([5]; Rate 62 g/ha, scale 0 to 100): 0
- Plant response rating, Foxtail, Giant [5, 14]: 0
- Plant response rating, Foxtail, Giant [5, 15]: 0
- Plant response rating, Foxtail, Giant [5, 16]: 0
- Plant response rating, Chickweed ([6]; Rate 62 g/ha, scale 0 to 100): 0
- Plant response rating, Chickweed [6, 14]: 0
- Plant response rating, Chickweed [6, 15]: 0
- Plant response rating, Chickweed [6, 16]: 0
- Plant response rating, Ragweed, Common ([7]; Rate 62 g/ha, scale 0 to 100): 0
- Plant response rating, Ragweed, Common [7, 14]: 0
- Plant response rating, Ragweed, Common [7, 15]: 30
- Plant response rating, Ragweed, Common [7, 16]: 40
- Plant response rating, Nutsedge ([8]; Rate 62 g/ha, scale 0 to 100): 0
- Plant response rating, Nutsedge [8, 14]: 0
- Plant response rating, Nutsedge [8, 15]: 0
- Plant response rating, Nutsedge [8, 16]: 20
- Plant response rating, Bermudagrass ([9]; Rate 62 g/ha, scale 0 to 100): 0
- Plant response rating, Bermudagrass [9, 14]: 20
- Plant response rating, Bermudagrass [9, 15]: 60
- Plant response rating, Bermudagrass [9, 16]: 70
- Plant response rating, Velvetleaf ([10]; Rate 62 g/ha, scale 0 to 100): 0
- Plant response rating, Velvetleaf [10, 14]: 0
- Plant response rating, Velvetleaf [10, 15]: 0
- Plant response rating, Velvetleaf [10, 16]: 20
- Plant response rating, Lambsquarters ([11]; Rate 62 g/ha, scale 0 to 100): 20
- Plant response rating, Lambsquarters [11, 14]: 40
- Plant response rating, Lambsquarters [11, 15]: 50
- Plant response rating, Lambsquarters [11, 16]: 70
- Plant response rating, Johnsongrass ([12]; Rate 62 g/ha, scale 0 to 100): 0
- Plant response rating, Johnsongrass [12, 14]: 0
- Plant response rating, Johnsongrass [12, 15]: 20
- Plant response rating, Johnsongrass [12, 16]: 30
- Plant response rating, Kochia (kochia (Kochia scoparia); Rate 62 g/ha, scale 0 to 100): 20
- Plant response rating, Kochia (kochia (Kochia scoparia); [14]): 50
- Plant response rating, Kochia (kochia (Kochia scoparia); [15]): 60
- Plant response rating, Kochia (kochia (Kochia scoparia); [16]): 70
- Plant response rating, Cupgrass, Woolly ([13]; Rate 62 g/ha, scale 0 to 100): 0
- Plant response rating, Cupgrass, Woolly [13, 14]: 0
- Plant response rating, Cupgrass, Woolly [13, 15]: 0
- Plant response rating, Cupgrass, Woolly [13, 16]: 0

SMILES: O=C1C(n2ccc(C3CCC3)n2)SCN1c1cccc(C(F)(F)F)c1 (centres unmarked) [Compound 37]
- Plant response rating, Morningglory ([1]; Rate 31 g/ha, scale 0 to 100): 0
- Plant response rating, Morningglory [1, 14]: 0
- Plant response rating, Morningglory [1, 15]: 0
- Plant response rating, Soybean (soybean (Glycine max); Rate 31 g/ha, scale 0 to 100): 0
- Plant response rating, Soybean (soybean (Glycine max); [14]): 0
- Plant response rating, Soybean (soybean (Glycine max); [15]): 0
- Plant response rating, Goosegrass ([2]; Rate 31 g/ha, scale 0 to 100): 0
- Plant response rating, Goosegrass [2, 14]: 0
- Plant response rating, Goosegrass [2, 15]: 0
- Plant response rating, Surinam grass ([3]; Rate 31 g/ha, scale 0 to 100): 0
- Plant response rating, Surinam grass [3, 14]: 0
- Plant response rating, Surinam grass [3, 15]: 0
- Plant response rating, Pigweed ([4]; Rate 31 g/ha, scale 0 to 100): 0
- Plant response rating, Pigweed [4, 14]: 0
- Plant response rating, Pigweed [4, 15]: 0
- Plant response rating, Foxtail, Giant ([5]; Rate 31 g/ha, scale 0 to 100): 0
- Plant response rating, Foxtail, Giant [5, 14]: 0
- Plant response rating, Foxtail, Giant [5, 15]: 0
- Plant response rating, Chickweed ([6]; Rate 31 g/ha, scale 0 to 100): 0
- Plant response rating, Chickweed [6, 17]: 0
- Plant response rating, Chickweed [6, 14]: 0
- Plant response rating, Chickweed [6, 15]: 0
- Plant response rating, Ragweed, Common ([7]; Rate 31 g/ha, scale 0 to 100): 0
- Plant response rating, Ragweed, Common [7, 14]: 0
- Plant response rating, Ragweed, Common [7, 15]: 0
- Plant response rating, Nutsedge ([8]; Rate 31 g/ha, scale 0 to 100): 0
- Plant response rating, Nutsedge [8, 14]: 0
- Plant response rating, Nutsedge [8, 15]: 0
- Plant response rating, Bermudagrass ([9]; Rate 31 g/ha, scale 0 to 100): 0
- Plant response rating, Bermudagrass [9, 17]: 0
- Plant response rating, Bermudagrass [9, 14]: 0
- Plant response rating, Bermudagrass [9, 15]: 0
- Plant response rating, Velvetleaf ([10]; Rate 31 g/ha, scale 0 to 100): 0
- Plant response rating, Velvetleaf [10, 14]: 0
- Plant response rating, Velvetleaf [10, 15]: 0
- Plant response rating, Lambsquarters ([11]; Rate 31 g/ha, scale 0 to 100): 20
- Plant response rating, Lambsquarters [11, 14]: 20
- Plant response rating, Lambsquarters [11, 15]: 50
- Plant response rating, Johnsongrass ([12]; Rate 31 g/ha, scale 0 to 100): 0
- Plant response rating, Johnsongrass [12, 14]: 0
- Plant response rating, Johnsongrass [12, 15]: 0
- Plant response rating, Kochia (kochia (Kochia scoparia); Rate 31 g/ha, scale 0 to 100): 0
- Plant response rating, Kochia (kochia (Kochia scoparia); [14]): 20
- Plant response rating, Kochia (kochia (Kochia scoparia); [15]): 70
- Plant response rating, Cupgrass, Woolly ([13]; Rate 31 g/ha, scale 0 to 100): 0
- Plant response rating, Cupgrass, Woolly [13, 14]: 0
- Plant response rating, Cupgrass, Woolly [13, 15]: 0
